Experimental data as given in patent US8946431B2, “2-(substituted ethynyl)quinoline derivatives as mGLUr5 antagonists” (Korea Institute of Science and Technology, priority 2013, dated 2015).
Read-outs that look alike come from different tables or passages of the source. Marks after values point to notes of the source that are not given here.

Legend:
hERG = hERG (Homo sapiens, UniProt Q12809); experiment: Inhibitory concentration (IC50) on hERG
mGluR5 [1] = target: T1, mGluR5 (Homo sapiens, UniProt P41594); experiment: Assay for m-GluR5 activity using FDSS6000 (calcium mobilization by L-glutamate in mGluR5/HEK293 cells); assay type: cell-based; conditions: HEK293, L-glutamate 10 uM, HEK cells expressing m-GluR5, read-out: % Inhibition rate (mGluR5)
T1 construct: host or cells: HEK293 (human embryonic kidney) cells stably expressing m-GluR5
T1 sequence (P41594 21-1212): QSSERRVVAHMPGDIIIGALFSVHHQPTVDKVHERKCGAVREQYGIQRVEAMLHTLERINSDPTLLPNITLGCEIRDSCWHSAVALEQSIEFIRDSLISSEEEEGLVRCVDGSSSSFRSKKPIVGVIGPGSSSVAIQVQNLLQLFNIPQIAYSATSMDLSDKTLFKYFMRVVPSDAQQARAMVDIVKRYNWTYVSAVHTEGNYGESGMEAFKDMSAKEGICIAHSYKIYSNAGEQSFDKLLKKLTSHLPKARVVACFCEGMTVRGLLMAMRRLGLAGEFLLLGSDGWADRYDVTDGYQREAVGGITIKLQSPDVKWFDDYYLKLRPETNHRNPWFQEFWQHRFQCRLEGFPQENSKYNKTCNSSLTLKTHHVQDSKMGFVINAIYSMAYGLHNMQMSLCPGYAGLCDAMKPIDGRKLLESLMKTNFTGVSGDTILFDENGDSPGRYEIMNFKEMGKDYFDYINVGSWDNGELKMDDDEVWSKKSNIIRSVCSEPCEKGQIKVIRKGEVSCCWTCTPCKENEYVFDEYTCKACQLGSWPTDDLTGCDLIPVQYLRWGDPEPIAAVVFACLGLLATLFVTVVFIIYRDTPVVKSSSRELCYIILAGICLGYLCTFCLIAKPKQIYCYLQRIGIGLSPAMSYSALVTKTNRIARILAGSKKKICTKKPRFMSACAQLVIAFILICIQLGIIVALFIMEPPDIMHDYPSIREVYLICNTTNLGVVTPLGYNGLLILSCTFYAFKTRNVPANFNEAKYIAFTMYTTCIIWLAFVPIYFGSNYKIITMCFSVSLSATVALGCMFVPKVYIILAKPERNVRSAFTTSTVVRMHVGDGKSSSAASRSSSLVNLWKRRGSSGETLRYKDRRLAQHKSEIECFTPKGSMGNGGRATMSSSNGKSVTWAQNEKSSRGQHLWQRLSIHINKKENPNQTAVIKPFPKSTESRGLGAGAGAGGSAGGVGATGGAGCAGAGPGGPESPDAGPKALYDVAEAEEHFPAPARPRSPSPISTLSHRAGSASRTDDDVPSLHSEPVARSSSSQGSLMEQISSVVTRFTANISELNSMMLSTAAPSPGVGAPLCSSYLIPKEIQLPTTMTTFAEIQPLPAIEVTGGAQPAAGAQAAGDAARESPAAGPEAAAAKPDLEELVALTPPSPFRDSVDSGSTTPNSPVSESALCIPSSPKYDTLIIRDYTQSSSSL
Experimental: Inhibitory activity (%) of the compound represented by Formula 1 on calcium mobilization developed at a high concentration of glutamate in mGluR5/HEK293 cells was measured by using a high throughput FDSS6000.
After HEK cells stably expressing m-GluR5 (Human embryonic kidney cell line; m-GluR5: Yonsei University) were prepared at a density of 4×10^4/Ml per well, aliquots of 100 μl from the cell suspension were distributed evenly into a 96-well plate and incubated for 18 hr at 37° C., 5% CO2. The well plate was washed with a HBSS buffer to remove the culture medium, and reacted with a HBSS buffer containing a Ca^2+ fluorescent dye (FLIPR Calcium 5 assay kit: Molecular Devices) for 30 min at 37° C., 5% CO2, thereby labeling with the fluorescent dye. Separately from the 96-well plate including the cells, another 96-well plate including L-glutamate (final concentration: 10 uM) capable of activating m-GluR5 and a blacking agent was prepared. Since most of cell-based HTS devices are equipped with a liquid application system for injection of a drug, but have no liquid sucking system, the blocking agent to be tested and L-glutamate were respectively provided at a 6-fold higher concentration in a HBSS buffer at the amount of 25 μl, diluted by six-times at the final cell plate volume of 150 μl, and then used in this assay. Briefly, the FDSS6000 assay was carried out by recording a reference level of 20 sec, pre-treating with a blocking agent for 75 sec, and then measuring the change in intracellular calcium level depending on the administration of L-glutamate. After the area of a 480/520 ratio value in a control without treatment of a test drug was set to 100%, an inhibitory effect of the test drug was calculated as a percentage (%) thereon.
For accurate calcium imaging, the light source of 4 xenon lamps in FDSS6000 were radiated to selectively expose the cells to the excitation wavelength (480 nm) by a computer-controlled filter wheel. Data were obtained at intervals of 1.23 sec. The emitter fluorescence light inflowed through a 520 nm long-pass filter was obtained as an average 480/520 ratio value for each well in the 96-wells by using a CCD camera and a digital fluorescence analyzer in FDSS6000. All image data and analyses were obtained by using a FDSS6000-exclusive program from Hamamatsu Photonics.

CYP3A4 = CYP3A4 (Homo sapiens, UniProt P08684); experiment: CYP inhibitory rate, CYP3A4; assay type: in vitro ADME
Chain of CYP3A4 (P08684 whole entry): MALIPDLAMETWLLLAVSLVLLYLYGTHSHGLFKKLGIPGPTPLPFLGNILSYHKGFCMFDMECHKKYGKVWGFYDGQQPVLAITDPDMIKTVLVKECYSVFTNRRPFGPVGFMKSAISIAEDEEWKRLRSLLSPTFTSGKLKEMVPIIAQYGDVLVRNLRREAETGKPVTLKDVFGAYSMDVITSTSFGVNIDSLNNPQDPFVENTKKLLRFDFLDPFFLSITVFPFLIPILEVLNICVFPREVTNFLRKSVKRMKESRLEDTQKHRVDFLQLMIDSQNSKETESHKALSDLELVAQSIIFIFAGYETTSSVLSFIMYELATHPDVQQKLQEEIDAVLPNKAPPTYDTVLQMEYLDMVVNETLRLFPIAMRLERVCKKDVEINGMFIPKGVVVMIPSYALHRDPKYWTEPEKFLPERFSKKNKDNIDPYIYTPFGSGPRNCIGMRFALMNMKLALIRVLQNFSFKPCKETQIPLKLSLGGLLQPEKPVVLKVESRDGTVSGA

[2] = tested on: SNL (spinal nerve ligation) neuropathic pain models; experiment: In vivo test in SNL (spinal nerve ligation) neuropathic pain models; conditions: orally administered, SNL model, compared with gabapentin as control (FIG. 1 C, D)
Excerpt: The compound prepared in Example 26 was subjected to an in vivo test as follows. […] Here, gabapentin was used as a control.

mGluR5 [3] = target: T1, mGluR5; experiment: Inhibitory concentration (IC50) on mGluR5; assay type: cell-based
CYP2C9 = CYP2C9 (Homo sapiens, UniProt P11712); experiment: CYP inhibitory rate, CYP2C9; assay type: in vitro ADME
Chain of CYP2C9 (P11712 whole entry): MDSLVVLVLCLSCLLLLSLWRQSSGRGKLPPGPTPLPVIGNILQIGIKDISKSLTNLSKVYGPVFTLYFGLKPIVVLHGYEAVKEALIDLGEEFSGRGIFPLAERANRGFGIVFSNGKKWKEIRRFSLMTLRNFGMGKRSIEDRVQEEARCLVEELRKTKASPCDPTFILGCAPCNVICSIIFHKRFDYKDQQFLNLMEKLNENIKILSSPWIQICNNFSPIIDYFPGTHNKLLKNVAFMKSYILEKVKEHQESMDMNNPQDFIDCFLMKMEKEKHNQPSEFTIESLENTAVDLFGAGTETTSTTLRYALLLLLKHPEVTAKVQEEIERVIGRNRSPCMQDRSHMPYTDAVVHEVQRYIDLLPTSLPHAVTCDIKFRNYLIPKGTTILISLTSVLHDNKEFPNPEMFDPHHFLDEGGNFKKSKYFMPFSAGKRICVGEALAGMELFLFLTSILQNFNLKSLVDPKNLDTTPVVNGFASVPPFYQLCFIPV

[4] = HLM (human liver microsomal) stability; assay type: in vitro ADME; conditions: human liver microsomes
CYP2D6 = CYP2D6 (Homo sapiens, UniProt P10635); experiment: CYP inhibitory rate, CYP2D6; assay type: in vitro ADME
Chain of CYP2D6 (P10635 whole entry): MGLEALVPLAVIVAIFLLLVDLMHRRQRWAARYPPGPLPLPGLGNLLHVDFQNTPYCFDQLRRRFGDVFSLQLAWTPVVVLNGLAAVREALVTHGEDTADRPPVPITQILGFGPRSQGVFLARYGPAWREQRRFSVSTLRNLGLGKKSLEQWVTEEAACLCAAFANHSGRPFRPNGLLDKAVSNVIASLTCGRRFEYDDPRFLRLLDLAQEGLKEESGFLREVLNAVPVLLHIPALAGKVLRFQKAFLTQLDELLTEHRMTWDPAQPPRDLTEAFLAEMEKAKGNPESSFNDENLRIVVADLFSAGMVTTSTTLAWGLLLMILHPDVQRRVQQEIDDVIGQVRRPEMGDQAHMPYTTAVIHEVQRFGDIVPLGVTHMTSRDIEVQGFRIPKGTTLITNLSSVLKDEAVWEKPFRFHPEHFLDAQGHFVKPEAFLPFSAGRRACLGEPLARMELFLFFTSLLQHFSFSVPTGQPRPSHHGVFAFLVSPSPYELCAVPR

[5] = rat

Chain of hERG (Q12809 whole entry): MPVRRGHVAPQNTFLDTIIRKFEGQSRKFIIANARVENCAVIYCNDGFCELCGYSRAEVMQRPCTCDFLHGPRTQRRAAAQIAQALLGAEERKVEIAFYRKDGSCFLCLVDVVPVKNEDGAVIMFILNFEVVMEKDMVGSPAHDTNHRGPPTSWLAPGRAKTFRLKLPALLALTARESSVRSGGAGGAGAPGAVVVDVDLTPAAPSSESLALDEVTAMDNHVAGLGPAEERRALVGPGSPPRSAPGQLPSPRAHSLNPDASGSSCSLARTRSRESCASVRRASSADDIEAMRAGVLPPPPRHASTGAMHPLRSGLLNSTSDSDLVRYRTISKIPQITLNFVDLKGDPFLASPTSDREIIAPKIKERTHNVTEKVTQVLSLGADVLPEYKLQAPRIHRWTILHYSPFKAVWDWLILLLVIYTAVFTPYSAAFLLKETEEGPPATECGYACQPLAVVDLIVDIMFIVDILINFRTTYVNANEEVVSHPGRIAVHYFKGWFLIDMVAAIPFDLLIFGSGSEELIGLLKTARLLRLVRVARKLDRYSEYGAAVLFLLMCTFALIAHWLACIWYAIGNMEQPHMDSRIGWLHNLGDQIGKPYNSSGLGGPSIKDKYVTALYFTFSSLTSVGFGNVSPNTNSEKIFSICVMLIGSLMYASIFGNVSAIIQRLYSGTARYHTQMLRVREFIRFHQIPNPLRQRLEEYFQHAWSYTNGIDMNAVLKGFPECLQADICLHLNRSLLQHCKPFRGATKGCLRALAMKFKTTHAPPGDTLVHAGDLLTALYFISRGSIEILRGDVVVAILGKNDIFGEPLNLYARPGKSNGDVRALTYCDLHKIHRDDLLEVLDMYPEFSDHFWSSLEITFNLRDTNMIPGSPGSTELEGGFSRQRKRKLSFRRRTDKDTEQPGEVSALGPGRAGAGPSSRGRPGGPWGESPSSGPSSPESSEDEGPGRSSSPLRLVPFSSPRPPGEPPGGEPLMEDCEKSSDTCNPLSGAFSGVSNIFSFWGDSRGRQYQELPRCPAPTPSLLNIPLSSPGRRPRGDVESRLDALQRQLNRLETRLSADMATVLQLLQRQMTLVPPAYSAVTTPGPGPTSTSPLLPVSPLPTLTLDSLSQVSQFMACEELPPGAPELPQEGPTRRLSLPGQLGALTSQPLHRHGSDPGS

C(#Cc1ccc2ccccc2n1)c1ccccn1 [Example 26, 2-(Pyridine-2-ylethynyl)quinoline]
IC50 (hERG): 20.3 ± 6.11 µM
inhibition at 1 µM (mGluR5 [1]; 1 μM compound): 58.8%
inhibition at 10 µM (mGluR5 [1]; 10 μM compound): 76.7%
CYP (% remaining @ 10 μM) CYP3A4 (CYP3A4): 77%
inhibitory effect on cold allodynia [2]: higher inhibitory effect
IC50 (mGluR5 [3]): 0.94 ± 0.25 µM
CYP (% remaining @ 10 μM) CYP2C9 (CYP2C9): >99%
HLM % remaining after 30 min [4]: 88%
CYP (% remaining @ 10 μM) CYP2D6 (CYP2D6): 98%
CL ([5]; intravenous injection (n=4)): 84.93 (±8.98) mL/min/kg
T1/2 ([5]; intravenous injection (n=4)): 58.24 (±62.41) min
Vdss ([5]; intravenous injection (n=4)): 1269.02 (±158.55) mL/kg
F ([5]; oral administration): 15.9%
Cmax ([5]; oral administration (n=3)): 0.43 (±0.18) μg/mL
T1/2 ([5]; oral administration (n=3)): 48.53 (±8.06) min
Tmax ([5]; oral administration (n=3), median value (range)): 10 (5-30)^a min
